From patent US11053204B2, “Pyrimidinyloxy benzene derivatives as herbicides” (FMC Corporation, priority 2015, dated 2021)

Columns and labels:
Type in all cases: in vivo
[1] = system: ragweed (common ragweed, Ambrosia elatior); assay: Test A preemergence, visual injury rating; conditions: for Ragweed plant response rating: 0 to 100 scale (0 no effect, 100 complete control)
How it was run: (§1)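 Greenhouse pot test, loam/sand soil. Formulation: non-phytotoxic solvent mix plus surfactant. Pre: directed spray onto soil after sowing. Post: plants at 1–2 leaf, 2–10 cm. Rated visually vs untreated controls at ~10 d, 0 (no effect) to 100 (complete control).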

[2] = system: pigweed (Amaranthus retroflexus); assay: Test A preemergence, visual injury rating; conditions: for Pigweed plant response rating: 0 to 100 scale (0 no effect, 100 complete control)
How it was run: as §1

[3] = system: giant foxtail (Setaria faberii); assay: Test A preemergence, visual injury rating; conditions: for Foxtail, Giant plant response rating: 0 to 100 scale (0 no effect, 100 complete control)
How it was run: as §1

[4] = system: barnyardgrass (Echinochloa crus-galli); assay: Test A preemergence, visual injury rating; conditions: for Barnyardgrass plant response rating: 0 to 100 scale (0 no effect, 100 complete control)
How it was run: as §1

[5] = system: Italian ryegrass (Lolium multiflorum); assay: Test A preemergence, visual injury rating; conditions: for Ryegrass, Italian plant response rating: 0 to 100 scale (0 no effect, 100 complete control)
How it was run: as §1

[6] = system: kochia (Kochia scoparia); assay: Test A preemergence, visual injury rating; conditions: for Kochia plant response rating: 0 to 100 scale (0 no effect, 100 complete control)
How it was run: as §1

[7] = system: galium (catchweed bedstraw, Galium aparine); assay: Test A postemergence, visual injury rating; conditions: 0 is no effect, 100 is complete control; for Galium plant response rating: 0 to 100 scale, approximately 10 days
How it was run: as §1

[8] = system: ragweed (common ragweed, Ambrosia elatior); assay: Test A postemergence, visual injury rating; conditions: 0 is no effect, 100 is complete control; for Ragweed plant response rating: 0 to 100 scale, approximately 10 days; for Ragweed plant response rating (0 to 100 scale): 500 g ai/ha
How it was run: as §1

[9] = system: pigweed (Amaranthus retroflexus); assay: Test A postemergence, visual injury rating; conditions: 0 is no effect, 100 is complete control; for Pigweed plant response rating: 0 to 100 scale, approximately 10 days; for Pigweed plant response rating (0 to 100 scale): 500 g ai/ha
How it was run: as §1

[10] = system: corn (Zea mays); assay: Test A postemergence, visual injury rating; conditions: 0 is no effect, 100 is complete control; for Corn plant response rating: 0 to 100 scale, approximately 10 days
How it was run: as §1

[11] = system: giant foxtail (Setaria faberii); assay: Test A postemergence, visual injury rating; conditions: 0 is no effect, 100 is complete control; for Foxtail, Giant plant response rating: 0 to 100 scale, approximately 10 days
How it was run: as §1

[12] = system: barnyardgrass (Echinochloa crus-galli); assay: Test A postemergence, visual injury rating; conditions: 0 is no effect, 100 is complete control; for Barnyardgrass plant response rating: 0 to 100 scale, approximately 10 days
How it was run: as §1

[13] = system: Italian ryegrass (Lolium multiflorum); assay: Test A postemergence, visual injury rating; conditions: 0 is no effect, 100 is complete control; for Ryegrass, Italian plant response rating: 0 to 100 scale, approximately 10 days; for Ryegrass, Italian plant response rating (0 to 100 scale): 500 g ai/ha
How it was run: as §1

[14] = system: kochia (Kochia scoparia); assay: Test A postemergence, visual injury rating; conditions: 0 is no effect, 100 is complete control; for Kochia plant response rating: 0 to 100 scale, approximately 10 days; for Kochia plant response rating (0 to 100 scale): 500 g ai/ha
How it was run: as §1

[15] = system: wheat (Triticum aestivum); assay: Test A postemergence, visual injury rating; conditions: 0 is no effect, 100 is complete control; for Wheat plant response rating: 0 to 100 scale, approximately 10 days; for Wheat plant response rating (0 to 100 scale): 500 g ai/ha
How it was run: as §1

[16] = system: blackgrass (Alopecurus myosuroides); assay: Test A postemergence, visual injury rating; conditions: 0 is no effect, 100 is complete control; for Blackgrass plant response rating: 0 to 100 scale, approximately 10 days
How it was run: as §1

[17] = system: ducksalad (Heteranthera limosa); assay: Test B flooded paddy test, plant response rating; conditions: 250 g ai/ha; Flood; scale of 0 to 100 where 0 is no effect and 100 is complete control; 13 to 15 days
How it was run: (§2)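 Test compounds are applied straight into paddy water held 3 cm above the soil surface, with that flood maintained for the whole test. After 13 to 15 days in the greenhouse, each species is scored visually relative to controls.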

[18] = system: rice (Oryza sativa); assay: Test B flooded paddy test, plant response rating; conditions: 250 g ai/ha; Flood; scale of 0 to 100 where 0 is no effect and 100 is complete control; 13 to 15 days
How it was run: as §2

[19] = system: barnyardgrass (Echinochloa crus-galli); assay: Test B flooded paddy test, plant response rating; conditions: 250 g ai/ha; Flood; scale of 0 to 100 where 0 is no effect and 100 is complete control; 13 to 15 days
How it was run: as §2

[20] = system: sedge, umbrella (small-flower umbrella sedge, Cyperus difformis); assay: Test B flooded paddy test, plant response rating; conditions: 250 g ai/ha; Flood; scale of 0 to 100 where 0 is no effect and 100 is complete control; 13 to 15 days
How it was run: as §2

[21] = 31 g ai/ha, 0 to 100 scale, 0 no effect, 100 complete control

Compound: N#Cc1cccc(Oc2ncc(Cl)cn2)c1COCCCC(F)(F)F [Compound 81]
- Plant response rating, Ragweed [1, 21]: 0
- Ragweed plant response rating ([1]; 125 g ai/ha): 0
- Plant response rating, Pigweed [2, 21]: 100
- Pigweed plant response rating ([2]; 125 g ai/ha): 100
- Plant response rating, Foxtail, Giant [3, 21]: 30
- Foxtail, Giant plant response rating ([3]; 125 g ai/ha): 100
- Plant response rating, Barnyardgrass [4, 21]: 10
- Barnyardgrass plant response rating ([4]; 125 g ai/ha): 90
- Plant response rating, Ryegrass, Italian [5, 21]: 0
- Ryegrass, Italian plant response rating ([5]; 125 g ai/ha): 20
- Plant response rating, Kochia [6, 21]: 0
- Kochia plant response rating ([6]; 125 g ai/ha): 90
- Galium plant response rating ([7]; 31 g ai/ha): 30
- Galium plant response rating (0 to 100 scale) ([7]; 125 g ai/ha): 80
- Ragweed plant response rating ([8]; 31 g ai/ha): 0
- Ragweed plant response rating ([8]; 125 g ai/ha): 10
- Pigweed plant response rating ([9]; 31 g ai/ha): 50
- Pigweed plant response rating ([9]; 125 g ai/ha): 100
- Corn plant response rating ([10]; 31 g ai/ha): 10
- Corn plant response rating (0 to 100 scale) ([10]; 125 g ai/ha): 40
- Foxtail, Giant plant response rating ([11]; 31 g ai/ha): 20
- Foxtail, Giant plant response rating (0 to 100 scale) ([11]; 125 g ai/ha): 70
- Barnyardgrass plant response rating ([12]; 31 g ai/ha): 10
- Barnyardgrass plant response rating (0 to 100 scale) ([12]; 125 g ai/ha): 50
- Ryegrass, Italian plant response rating ([13]; 31 g ai/ha): 0
- Ryegrass, Italian plant response rating ([13]; 125 g ai/ha): 10
- Kochia plant response rating ([14]; 31 g ai/ha): 30
- Kochia plant response rating ([14]; 125 g ai/ha): 50
- Wheat plant response rating ([15]; 31 g ai/ha): 0
- Wheat plant response rating ([15]; 125 g ai/ha): 0
- Blackgrass plant response rating ([16]; 31 g ai/ha): 10
- Blackgrass plant response rating (0 to 100 scale) ([16]; 125 g ai/ha): 40
- Plant response rating, Ducksalad [17]: 100
- Plant response rating, Rice [18]: 0
- Plant response rating, Barnyardgrass [19]: 45
- Plant response rating, Sedge, Umbrella [20]: 100

Compound: CCSC(=O)c1c(Br)cccc1Oc1ncc(Cl)cn1 [Compound 83]
- Ragweed plant response rating ([1]; 125 g ai/ha): 0
- Ragweed plant response rating ([1]; 500 g ai/ha): 0
- Pigweed plant response rating ([2]; 125 g ai/ha): 30
- Pigweed plant response rating ([2]; 500 g ai/ha): 90
- Foxtail, Giant plant response rating ([3]; 125 g ai/ha): 90
- Foxtail, Giant plant response rating ([3]; 500 g ai/ha): 100
- Barnyardgrass plant response rating ([4]; 125 g ai/ha): 30
- Barnyardgrass plant response rating ([4]; 500 g ai/ha): 90
- Ryegrass, Italian plant response rating ([5]; 125 g ai/ha): 0
- Ryegrass, Italian plant response rating ([5]; 500 g ai/ha): 0
- Kochia plant response rating ([6]; 125 g ai/ha): 0
- Kochia plant response rating ([6]; 500 g ai/ha): 0
- Galium plant response rating ([7]; 125 g ai/ha): 30
- Galium plant response rating (0 to 100 scale) ([7]; 500 g ai/ha): 20
- Ragweed plant response rating ([8]; 125 g ai/ha): 0
- Ragweed plant response rating (0 to 100 scale) [8]: 0
- Pigweed plant response rating ([9]; 125 g ai/ha): 30
- Pigweed plant response rating (0 to 100 scale) [9]: 70
- Corn plant response rating ([10]; 125 g ai/ha): 20
- Corn plant response rating (0 to 100 scale) ([10]; 500 g ai/ha): 30
- Foxtail, Giant plant response rating ([11]; 125 g ai/ha): 0
- Foxtail, Giant plant response rating (0 to 100 scale) ([11]; 500 g ai/ha): 80
- Barnyardgrass plant response rating ([12]; 125 g ai/ha): 0
- Barnyardgrass plant response rating (0 to 100 scale) ([12]; 500 g ai/ha): 90
- Ryegrass, Italian plant response rating ([13]; 125 g ai/ha): 0
- Ryegrass, Italian plant response rating (0 to 100 scale) [13]: 0
- Kochia plant response rating ([14]; 125 g ai/ha): 30
- Kochia plant response rating (0 to 100 scale) [14]: 90
- Wheat plant response rating ([15]; 125 g ai/ha): 0
- Wheat plant response rating (0 to 100 scale) [15]: 0
- Blackgrass plant response rating ([16]; 125 g ai/ha): 0
- Blackgrass plant response rating (0 to 100 scale) ([16]; 500 g ai/ha): 40
- Plant response rating, Ducksalad [17]: 80
- Plant response rating, Rice [18]: 0
- Plant response rating, Barnyardgrass [19]: 0
- Plant response rating, Sedge, Umbrella [20]: 80

Compound: CCC(C)OC(=O)c1c(Br)cccc1Oc1ncc(Cl)cn1 (stereo not drawn) [Compound 84]
- Ragweed plant response rating ([1]; 125 g ai/ha): 0
- Ragweed plant response rating ([1]; 500 g ai/ha): 0
- Pigweed plant response rating ([2]; 125 g ai/ha): 0
- Pigweed plant response rating ([2]; 500 g ai/ha): 100
- Foxtail, Giant plant response rating ([3]; 125 g ai/ha): 0
- Foxtail, Giant plant response rating ([3]; 500 g ai/ha): 100
- Barnyardgrass plant response rating ([4]; 125 g ai/ha): 0
- Barnyardgrass plant response rating ([4]; 500 g ai/ha): 90
- Ryegrass, Italian plant response rating ([5]; 125 g ai/ha): 0
- Ryegrass, Italian plant response rating ([5]; 500 g ai/ha): 0
- Kochia plant response rating ([6]; 125 g ai/ha): 0
- Kochia plant response rating ([6]; 500 g ai/ha): 0
- Galium plant response rating ([7]; 125 g ai/ha): 30
- Galium plant response rating (0 to 100 scale) ([7]; 500 g ai/ha): 40
- Ragweed plant response rating ([8]; 125 g ai/ha): 0
- Ragweed plant response rating (0 to 100 scale) [8]: 0
- Pigweed plant response rating ([9]; 125 g ai/ha): 30
- Pigweed plant response rating (0 to 100 scale) [9]: 70
- Corn plant response rating ([10]; 125 g ai/ha): 10
- Corn plant response rating (0 to 100 scale) ([10]; 500 g ai/ha): 40
- Foxtail, Giant plant response rating ([11]; 125 g ai/ha): 0
- Foxtail, Giant plant response rating (0 to 100 scale) ([11]; 500 g ai/ha): 60
- Barnyardgrass plant response rating ([12]; 125 g ai/ha): 0
- Barnyardgrass plant response rating (0 to 100 scale) ([12]; 500 g ai/ha): 40
- Ryegrass, Italian plant response rating ([13]; 125 g ai/ha): 0
- Ryegrass, Italian plant response rating (0 to 100 scale) [13]: 0
- Kochia plant response rating ([14]; 125 g ai/ha): 30
- Kochia plant response rating (0 to 100 scale) [14]: 70
- Wheat plant response rating ([15]; 125 g ai/ha): 0
- Wheat plant response rating (0 to 100 scale) [15]: 20
- Blackgrass plant response rating ([16]; 125 g ai/ha): 0
- Blackgrass plant response rating (0 to 100 scale) ([16]; 500 g ai/ha): 0
- Plant response rating, Ducksalad [17]: 0
- Plant response rating, Rice [18]: 0
- Plant response rating, Barnyardgrass [19]: 0
- Plant response rating, Sedge, Umbrella [20]: 0
